Results published in patent US5081131A, “Omega-((hetero)alkyl)benz(cd)-indol-2-amines” (American Cyanamid Company, priority 1988, dated 1992).
Counter-ions that a name gives are not always drawn.

Experiments:
[1] = tested on: thevetin-induced arrhythmia in guinea pigs; experiment: Thevetin (cardiac glycoside)-induced arrhythmia in guinea pigs; type: in vivo, guinea pig; conditions: for Time (Minutes) Before Induced Arrhythmia: saline 22.91±0.5 minutes
Method: Male guinea pigs, weighing 300-500 g each, from Summit View Farms, Belvidere, N.J., were anesthetized by intraperitoneal adminstration of urethan at 1500 mg/kg. The animals were then restrained in a supine position. Electrocardiogram leads were attached to the four limbs and Lead II of the electrocardiogram was monitored.
The neck region was exposed and the jugular vein was cannulated. The test compounds were dissolved in saline and administered intravenously at the indicated doses, via a cannula which was then flushed with saline. Five minutes after the test compound was administered, thevetin dissolved in saline was administered by infusion through a cannula at a dose of 0.1 mg/kg/minute in a volume of 0.1 ml. The time until the P wave of the electrocardiogram disappeared was determined.

[2] = molecular target: T1, thromboxane synthetase enzyme (Rattus norvegicus, UniProt P49430); experiment: Thromboxane synthetase enzyme inhibition (TXB2 formation in washed platelets, RIA); type: cell-based, spontaneously hypertensive rat; conditions: 1×10^-4 Molar, SHR platelets, 10 min at 37° C.; for inhibition at 100 µM: read-out: % Inhibition (Thromboxane Synthetase Enzyme Inhibition)
T1 construct: endogenous in cells; host or cells: washed platelets from arterial blood of male Okamoto-Aoki spontaneously hypertensive rats (animals from Taconic Farms, Germantown, N.Y.)
T1 sequence (P49430 1-533): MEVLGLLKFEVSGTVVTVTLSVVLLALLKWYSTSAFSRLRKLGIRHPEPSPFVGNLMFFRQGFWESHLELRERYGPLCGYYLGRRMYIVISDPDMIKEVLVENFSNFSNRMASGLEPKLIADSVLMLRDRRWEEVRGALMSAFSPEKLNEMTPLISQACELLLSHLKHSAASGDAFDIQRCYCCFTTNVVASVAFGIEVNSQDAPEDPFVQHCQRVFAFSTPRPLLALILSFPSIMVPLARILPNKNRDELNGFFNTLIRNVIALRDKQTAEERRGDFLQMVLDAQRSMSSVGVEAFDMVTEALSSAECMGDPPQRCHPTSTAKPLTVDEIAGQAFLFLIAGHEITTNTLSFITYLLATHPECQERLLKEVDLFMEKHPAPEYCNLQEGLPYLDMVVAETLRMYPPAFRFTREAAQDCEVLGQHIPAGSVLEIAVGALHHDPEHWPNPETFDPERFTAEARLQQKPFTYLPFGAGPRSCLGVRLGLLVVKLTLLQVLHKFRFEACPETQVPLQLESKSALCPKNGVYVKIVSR
Method: The blood was diluted with 3 ml cold saline and centrifuged at room temperature for 15 min at 468×g. The platelet rich plasma (PRP) was separated. The platelets were isolated by certrifuging the PRP for 10 minutes at 1060×g and washed in 4 ml cold oxygenated Krebs phosphate buffer, pH 7.4. The chilled platelets recovered from centrifuging at 800×g for 10 minutes were resuspended in oxygenated Krebs phosphate buffer and diluted to contain 4.0-6.0×10^4 platelets/micro-liters. The inhibition of TX formation was studied by determining the concentration of thromboxane B2 (TXB2), the stable hydrolysis product of TXA2. Assay samples prepared on ice, contained 200 micro-liters platelet suspension, 50 micro-liters saline, and 50 micro-liters […] (saline) or drug under study. The test drug (0.003 mole) was dissolved in 5 ml of saline. […] The assay samples were incubated for 10 minutes at 37° C. in a metabolic shaker at about 60 rpm. The reaction was terminated by immersing the tubes in an ice bath and adding 50 micro-liters of 0.5M citric acid. The samples were centrifuged for 10 minutes at 2000 rpm at 4° C., and the supernatants were decanted.

[3] = tested on: spontaneously hypertensive rats; experiment: Hypotensive activity in spontaneously hypertensive rats (MABP); type: in vivo, rat (Okamoto strain); conditions: SHR, gavage, two doses of 10 mg/kg or less 24 h apart, MABP at 28 h; average baseline 160±1.5 mm Hg
Method in brief: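 Male 16-week Okamoto spontaneously hypertensive rats dosed by gavage in 2% starch at 10 mg/kg or less with 0.9% NaCl loading 25 ml/kg; identical dose without saline given 24 hours later. Mean arterial blood pressure measured 28 hours after first dose; 1 to 4 rats per compound.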

[4] = intravenous doses as high as 20 mg/kg

| Structure (SMILES) | Time (Minutes) Before Induced Arrhythmia ([1]; IV dose 10 mg/kg) | inhibition at 100 µM [2] | Avg. MABP in mm Hg (No. of Rats) [3] | further results |
| --- | --- | --- | --- | --- |
| CC(C)NC[C@H](O)COc1cccc2ccccc12 (racemic) [Propanolol, reference compound] | – | – | – | activity in thevetin-induced arrhythmia test ([1]; intravenous dose of 2 mg/kg): active; time protected before arrhythmia occurred ([1]; intravenous dose of 2 mg/kg): 47.0 ± 4.1 min |
| c1ccc(C(CNC2=Nc3cccc4cccc2c34)(Cn2ccnc2)c2ccccc2)cc1 [N-(3-(1H-imidazol-1-yl)-2,2-diphenylpropyl)benz(cd)indol-2-amine] | 41 min | 75% | 127 mm Hg | – |
| CC(CCNC1=Nc2c(Cl)cc(Cl)c3cccc1c23)n1ccnc1 (centres unmarked) [6,8-Dichloro-N-(3-(1H-imidazol-1-yl)butyl)benz(cd)indol-2-amine] | – | – | 102 mm Hg | Time (Minutes) Before Induced Arrhythmia ([1]; IV dose 20 mg/kg): 32 min |
| CC(=Cc1ccc(Cc2cccnc2)cc1)C(=O)O [OKY-1581, 2-methyl-3-(4-(3-pyridinylmethyl)phenyl-2-propenoic acid, sodium salt, reference compound] | – | – | – | activity in thevetin-induced arrhythmia test [1, 4]: inactive; time before arrhythmia occurred [1, 4]: 24.3 ± 2.2 min |
| O=C(O)/C=C/C(=O)O.c1cc2c3c(cccc3c1)C(NCCCCCCCCCCn1ccnc1)=N2 [N-(10-(1H-imidazol-1-yl)decyl)benz(cd)indol-2-amine, fumarate] | 34.2 min | 65% | 124 mm Hg | – |
| O=C(O)/C=C/C(=O)O.c1ccc(C(CCn2ccnc2)NC2=Nc3cccc4cccc2c34)cc1 (centres unmarked) [N-(3-(1H-imidazol-1-yl)-1-phenylpropyl)benz(cd)indol-2-amine, fumarate] | – | 100% | – | Time (Minutes) Before Induced Arrhythmia ([1]; IV dose 30 mg/kg): 34 min |
| CN(C)S(=O)(=O)c1ccc2c3c(cccc13)C(NCCCn1ccnc1)=N2 [N,N-Dimethyl-2-((3-(1H-imidazol-1-yl)propyl)amino)benz(cd)indol-6-sulfonamide] | – | 100% | – | Time (Minutes) Before Induced Arrhythmia ([1]; IV dose 20 mg/kg): 33.4 min |
| c1cncc(CCNC2=Nc3cccc4cccc2c34)c1 [N-(2-(3-Pyridinyl)ethyl)benz(cd)indol-2-amine sesqui-fumarate] | – | 99% | 126 mm Hg | Time (Minutes) Before Induced Arrhythmia ([1]; IV dose 20 mg/kg): 37 min |
| O=C(CNC1=Nc2cccc3cccc1c23)NCCCn1ccnc1 [2-(Benz(cd)indol-2-ylamino)-N-(3-(1H-imidazol-1-yl)propyl)acetamide] | – | 100% | – | Time (Minutes) Before Induced Arrhythmia ([1]; IV dose 25 mg/kg): 33 min |
| CC(CCNC1=Nc2ccc(Br)c3cccc1c23)n1ccnc1 (centres unmarked) [6-Bromo-N-(3-(1H-imidazol-1-yl)butyl)benz(cd)indol-2-amine] | – | 100% | 120 mm Hg | Time (Minutes) Before Induced Arrhythmia ([1]; IV dose 30 mg/kg): 34.7 min |
| Cl.Cl.c1cc2c3c(cccc3c1)C(NCCCn1ccnc1)=N2 [N-(3-(1H-imidazol-1-yl)propyl)benz(cd)indol-2-amine, dihydrochloride] | 48.5 min | – | 87 mm Hg | % Inhibition (Thromboxane Synthetase Enzyme Inhibition) [2]: 85% |
| CC(CNC1=Nc2cccc3cccc1c23)Cn1ccnc1.O=C(O)/C=C/C(=O)O (centres unmarked) [N-(3-(1H-imidazol-1-yl)-2-methylpropyl)benz(cd)indol-2-amine, fumarate] | – | – | – | Time (Minutes) Before Induced Arrhythmia ([1]; IV dose 20 mg/kg): 34.5 min; % Inhibition (Thromboxane Synthetase Enzyme Inhibition) [2]: 100% |
| O=C(O)c1ccc(OCCn2ccnc2)cc1 [Dazoxiben hydrochloride, 4-(2-(1H-imidazol-l-yl)ethoxy)benzoic acid, monohydrochloride, reference compound] | – | – | – | activity in thevetin-induced arrhythmia test [1, 4]: inactive; time before arrhythmia occurred [1, 4]: 22.2 ± 1.9 min |
| Clc1cc(Cl)c2cccc3c2c1N=C3NCCCCCn1ccnc1 [6,8-Dichloro-N-(5-(1H-imidazol-1-yl)pentyl)benz(cd)indol-2-amine] | – | – | 119 mm Hg | Time (Minutes) Before Induced Arrhythmia ([1]; IV dose 20 mg/kg): 33.4 min |
| CC(CCNC1=Nc2ccc(S(=O)(=O)N(C)C)c3cccc1c23)n1ccnc1 (centres unmarked) [N,N-Dimethyl-2-((3-(1H-imidazol-1-yl)butyl)amino)benz(cd)indol-6-sulfonamide] | 33.6 min | 99% | – | – |
| Clc1ccc2c3c(cccc13)C(NCCCCn1ccnc1)=N2.O=C(O)/C=C/C(=O)O [6-Chloro-N-(4-(1H-imidazol-1-yl)butyl)benz(cd)indol-2-amine, fumarate] | 31.5 min | 100% | 115 mm Hg | – |
| Brc1ccc2c3c(cccc13)C(NCCCCCn1ccnc1)=N2 [6-Bromo-N-(5-(1H-imidazol-1-yl)pentyl)benz(cd)indol-2-amine] | – | 97% | 118 mm Hg | Time (Minutes) Before Induced Arrhythmia ([1]; IV dose 20 mg/kg): 37 min |
| C(=C\Cn1ccnc1)/CNC1=Nc2cccc3cccc1c23 [(E)-N-(4-(1H-imidazol-1-yl)-2-butenyl)benz(cd)indol-2-amine, hydriodide] | 34.3 min | 100% | – | – |
| O=C(O)/C=C/C(=O)O.c1cc2c3c(cccc3c1)C(NCCCCn1ccnc1)=N2 [N-(4-(1H-imidazol-1-yl)butyl)benz(cd)indol-2-amine, fumarate] | 31 min | – | 106 mm Hg | % Inhibition (Thromboxane Synthetase Enzyme Inhibition) [2]: 100% |
| CC(CCNC1=Nc2cccc3cccc1c23)c1cccnc1 (centres unmarked) [N-(3-(3-Pyridinyl)butyl)benz(cd)indol-2-amine] | – | 96% | 110 mm Hg | – |
| CC(CCNC1=Nc2cccc3cccc1c23)n1ccnc1 (stereo not drawn) [N-(3-(1H-imidazol-l-yl)butyl)benz(cd) indol-2-amine, dihydrochloride] | – | 92% | 104 mm Hg | – |
